Experimental data reported in patent US5610171A, “Inhibition of metastasis in patients having cancer with pyridyloxazole-2-ones” (Merrell Pharmaceuticals Inc., priority 1995, dated 1997).
Read-outs that look alike come from different tables or passages of the source. Each block holds one compound with its values, some of them ahead of it.

Legend:
collagen IV = experiment: Adhesion of B16F1 cells to collagen IV; assay type: cell-based; conditions: 24 hours
Procedure: (§1) Adhesion of B16F1 Cells to Basement Membrane Proteins
(§2) Adhesion proteins (2 μg/well) were coated onto Immulon I Removawells from Dynatech and incubated for 1 hour at 37° C. The wells were then blocked for 1 hour with 400 μl PBS, pH 7.2 containing 1% bovine serum albumin (BSA) at 37° C. Prior to addition of the cell suspension, the blocking solution was aspirated.
(§3) Sub-confluent cells were washed twice with HBSS and removed form flasks by incubation for 10 minutes at 37° C. with PBS (pH 7.2), 2 mM EDTA, and 1% BSA. The cells were washed twice with MEM containing 20 mM HEPES and 0.1% BSA and resuspended in the same medium to give a cell density of […].
(§4) Cells were added to wells in 50 μl (5×10^4 cells) and incubated at 37° C. The wells were aspirated and washed three times with 400 μl PBS (pH 7.2) containing 0.1% BSA. Wells were detached and counted in 5 ml Beckman Ready Protein. Blanks were not coated with protein but were blocked with BSA as described above.

[1] = system: B16F1 cells / human umbilical vein endothelial cells (HUVEC); experiment: Adhesion of B16F1 melanoma cells to endothelial cells (HUVEC); assay type: cell-based, murine B16F1 cells; human HUVEC
Procedure: Adhesion of Tumor Cells to Endothelial Cells
Round 15 mm Thermanox tissue culture cover slips from Lux were placed in Corning 12-well, 22 mm diameter tissue culture clusters. HUVEC (2×10^6) were added to each well and grown to confluency. Sub-confluent B16F1 cells were labeled with 1 μCi/ml [^3 H]-thymidine (New England Nuclear, 78.5 Ci/mmol) for 24 hours at 37° C.
In preparation for the adhesion assay, the tissue culture wells containing either HUVEC or no cells were blocked with MEM containing 20 mM HEPES and 1% BSA for 1 hour at 37° C. B16F1 cells were removed from the flasks as described above for adhesion to basement membrane proteins and diluted to a density of 2×10^5 viable cells/ml in MEM (viability determined by trypan blue exclusion).
Blocking solution was aspirated from the wells and 1 ml of cells were added per well and incubated at 37° C. Nonadherent cells were washed from coverslips as described in Wright, P. S., Cross-Doersen, D., McCann, P. P. and Bitonti, A. J., Plasmodium falciparum: a rapid assay for cytoadherence of [^3 H]-hypoxanthine-labeled infected erythrocytes to human melanoma cells, Exp. Parasitol., 71: 346-349, 1990. Coverslips were retrieved from the well with forceps and dipped 10 times into a beaker of 100 ml MEM. Coverslips were placed into scintillation vials and counted in 10 ml Beckman Ready Protein.
B16F1 cells were treated with 4-propyl-5(4-pyridinyl)-
(3H)-oxazolone for 24 hours at 37° C. Cells were then
harvested and added to wells containing confluent HUVEC
cells and incubated for the time indicated at 37° C. Details
are given in Materials and Methods.

cytosolic PKC = experiment: Inhibition of B16F1 cytosolic PKC activity; assay type: biochemical, murine; conditions: B16F1 cytosol fraction
Procedure: (§5) Protein Kinase C Preparation
(§6) Cytostolic and membrane-associated PKC was prepared as described in Thomas, T. P., Gopalakrishna, R. and Anderson, W. B. Hormone- and tumor promoter-induced activation of membrane association of protein kinase C in intact cells, Methodsin Enzymology, 141: 399-411, 1987. Sub-confluent B16F1 cultures (4×10^7 cells total) were washed twice with phosphate buffered saline (PBS), pH 7.2 and then twice with buffer A (20 mM Tris, pH 7.5, 2 mM EDTA, 0.5 mM EGTA, […], 2 mM phenylmethylsulfonyl fluoride (PMSF), and 2 μg/ml leupeptin). Cells were scraped from the plates in buffer A, homogenized (40 strokes) and sedimented by centrifugation for 1 hour at 100,000 g. The cytosol was stored on ice while the particulate fraction was washed with buffer B (20 mM Tris, pH 7.2, 2 mM EDTA, 0.5 mM EGTA, and 2 mM (PMSF). The membranes were resuspended with buffer B and homogenized with 10 strokes. Nonidet P-40 (1% final concentration) was added and the mixture was incubated for 30 minutes at 4° C. in a rotating mixer. Nonsolubilized material was removed by centrifugation for 10 minutes at 1400 g. Cytostolic and membrane-bound PKC was partially purified by chromatography over 1 ml columns of DE-52 (Whatman) equilibrated with buffer B. The enzyme was applied to the column and washed with 2×3 ml buffer B. Elution of PKC was then effected by the addition of 2 ml buffer B containing 100 mM NaCl.
(§7) PKC was quantitated as described in Thomas et al., ibid. The assay contained 20 mM Tris (pH 7.5), 0.75 mM CaCl, 10 mM magnesium acetate, […] histone III-S, 0.25 μg/ml leupeptin, 100 μM [gamma-^32 p]-ATP (120 cpm/pmol), 0.96 μg/ml phosphatidylserine, and 0.0064 μg/ml 1,2-diolein in a total assay volume of 250 μl. Blanks contained no calcium or phospholipids. Incubation was for 5 minutes at 30° C. at which point the reaction was terminated by the addition of 1 ml 25% trichloroacetic acid (TCA). Samples were applied to Whatman GF/B filters, the tube rinsed twice with 5% TCA and the filter then washed 5 times with 5% TCA.
^a Subconfluent B16F1 cells were harvested and cytosol and membrane
fractions prepared as described in Materials and Methods. PKC activity wa
then measured in the presence of the drugs listed.

B16F1 cells = experiment: Experimental lung metastasis assay (B16F1 cells treated in culture, then injected intravenously into C57BL/6 mice); assay type: in vivo, murine (C57BL/6 mice); conditions: Mus musculus, B16-F1, iv, read-out: B16 Metastasis IC50
Procedure: Experimental Metastasis Assay
Sub-confluent B16F1 cells were harvested by washing with HBSS followed by trypsinization for 1 minute. The cells were sedimented by centrifugation (250 g, 5 minutes) and washed twice with HBSS. Viable cells were counted after dilution with trypan blue. A single-cell suspension of 10^5 cells in 0.2 ml HBSS was injected intravenously into 16-18 C57BL/6 mice via the tail vein. Three weeks later, the number of metastatic foci in the lung were counted.

fibrinogen = experiment: Adhesion of B16F1 cells to fibrinogen; assay type: cell-based; conditions: 24 hours
Procedure: as §1, §2, §3, §4

membrane-associated PKC = experiment: Inhibition of B16F1 membrane-associated PKC activity; assay type: biochemical, murine; conditions: B16F1 membrane fraction
Procedure: as §5, §6, §7

[2] = system: SP1 mouse mammary adenocarcinoma cells; conditions: cells normally do not metastasize; cited from earlier work
[3] = system: Lewis lung carcinoma cells; conditions: cited from earlier work
[4] = system: B16 murine melanoma cells; conditions: cells treated in vitro, intravenous injection into mice; cited from earlier work
[5] = cells exposed to drugs for 24 hours, nodules counted three weeks later

Structure (SMILES): CC1CNCCN1S(=O)(=O)c1cccc2cnccc12 (stereo not shown) [Compound H-7, reference compound]
adhesion to collagen IV (collagen IV): Neither H-7 nor staurosporine inhibited adherence | adherence to HUVEC [1]: Neither H-7 nor staurosporine inhibited adherence | IC50 (cytosolic PKC): 180 µM | IC50 (B16F1 cells): 12.5 µM | adhesion to fibrinogen (fibrinogen): Neither H-7 nor staurosporine inhibited adherence | IC50 (membrane-associated PKC): 71 µM

IC50 (cytosolic PKC): 62 µM | IC50 (membrane-associated PKC): 94 µM
Structure (SMILES): CCCc1[nH]c(=O)oc1-c1ccnc2ccccc12 [Compound 4, 4propyl-5-(4-quinolinyl)-2(3H)-oxazolone]

IC50 (cytosolic PKC): 500 µM | IC50 (B16F1 cells; [5]): 36 µM | IC50 (membrane-associated PKC): 250 µM
Structure (SMILES): Cc1[nH]c(=O)oc1-c1ccncc1 [Compound 2, 4methyl-5-(4-pyridinyl)-2(3H)-oxazolone]

IC50 (cytosolic PKC): 47 µM | IC50 (B16F1 cells; [5]): 68 µM | IC50 (membrane-associated PKC): 15 µM
Structure (SMILES): CCc1[nH]c(=O)oc1-c1ccnc2ccccc12 [Compound 3, 4ethyl-5-(4-quinolinyl)-2(3H)-oxazolone]

Structure (SMILES): CCCCCCCCCCCCCC(=O)O[C@@H]1[C@@H](C)[C@@]2(O)[C@@H](C=C(CO)C[C@]3(O)C(=O)C(C)=C[C@@H]23)[C@@H]2C(C)(C)[C@]12OC(C)=O [PMA, phorbol-12-myristate-13-acetate]
metastasis from the primary tumor [2]: resulted in metastasis from the primary tumor | adhesion to endothelial cells [3]: enhancement of adhesion to endothelial cells | number of metastatic foci in lungs [4]: increased numbers of metastatic foci in lungs

Structure (SMILES): CN[C@@H]1C[C@H]2O[C@@](C)([C@@H]1OC)n1c3ccccc3c3c4c(c5c6ccccc6n2c5c31)C(=O)NC4 [Staurosporine, reference compound]
adhesion to collagen IV (collagen IV): Neither H-7 nor staurosporine inhibited adherence | adherence to HUVEC [1]: Neither H-7 nor staurosporine inhibited adherence | IC50 (cytosolic PKC): 0.019 µM | adhesion to fibrinogen (fibrinogen): Neither H-7 nor staurosporine inhibited adherence

Structure (SMILES): CNc1ccc2oc(C[C@H]3O[C@@]4(CC[C@H]3C)O[C@H]([C@H](C)C(=O)c3ccc[nH]3)[C@H](C)C[C@H]4C)nc2c1C(=O)O [Compound A23187]
metastasis from the primary tumor [2]: resulted in metastasis from the primary tumor
